- melting point: 125 °C
Structure (SMILES): CCN(C)C(=S)Nc1cc(C)c(Oc2cccc(C(C)(C)C)c2)cc1C [Compound 27, N′-(4-{[3-(1,1-dimethylethyl)phenyl]oxy}-2,5-dimethylphenyl)-N-ethyl-N-methylthiourea]

Source: US6696487B2, “Fungicidal phenyl(thio)urea and phenyl(thio)carbamate derivatives” (Bayer Cropscience S.A., priority 2000, dated 2004)
